# Results reported in patent publication US20100317528A1, “HERBICIDE CONTAINING BENZOYLPYRAZOLE COMPOUND” (ISHIHARA SANGYO KAISHA, LTD., priority 2006, published 2010).
# How the values were obtained:
# Format in all cases: in vivo
# corn (Zea mays L.) [1] = experiment: Test Example 1: foliar treatment, upland pot test, corn
# Description: (§1) Upland field soil was put into a 1/170,000 hectare pot, and seeds of various plants were sown. When the respective plants reached predetermined leaf stage ((1) barnyardgrass (Echinochloa crus-galli L.): 1.0 to 3.0 leaf stage, (2) crabgrass (Digitaria sanguinalis L.): 1.0 to 3.0 leaf stage, (3) green foxtail (Setaria viridis L.): 1.0 to 3.0 leaf stage, (4) redroot pigweed (Amaranthus retroflexus L.): cotyledon stage to 2.0 leaf stage, (5) prickly sida (Sida spinosa L.): cotyledon stage to 1.0 leaf stage, (6) velvetleaf (Abutilon theophrasti MEDIC.): 0.1 to 1.5 leaf stage, (7) rice (Oryza sativa L.): 1.0 to 3.0 leaf stage, (8) wheat (Triticum spp.): 1.7 to 3.4 leaf stage, (9) corn (Zea mays L.): 2.0 to 3.5 leaf stage, (10) soybean (Glycine max Merr.): primary leaf stage to 0.4 leaf stage), wettable powders or emulsifiable concentrates of the compounds of the above formula (I) prepared in accordance with a conventional preparation method, were weighed so that the active ingredients became the prescribed amounts, and diluted with water in an amount corresponding to 500 liter per 1 hectare (containing 0.1 vol % of “KUSARINOH”, manufactured by NIHON NOHYAKU CO., LTD. as an agricultural spreader). The spray solutions thus prepared were applied for foliar treatment by a small sprayer.
# (§2) On the 17th to 25th day after application, the state of growth of the respective plants was visually observed, and the herbicidal effect was evaluated by a growth inhibition rate (%) of 0 (equivalent to the non-treated area) to 100% (complete kill).
# rice (Oryza sativa L.) [2] = experiment: Test Example 1: foliar treatment, upland pot test, rice
# Description: as §1, §2
# [3] = system: velvetleaf (Abutilon theophrasti MEDIC.); experiment: Test Example 2: soil application on the day after sowing, velvetleaf; settings: 250 g/ha active ingredient, observed 19th to 28th day after application
# Description: (§3) Upland field soil was put into a 1/170,000 hectare pot, and seeds of various plants barnyardgrass (Echinochloa crus-galli L.), crabgrass (Digitaria sanquinalis L.), green foxtail (Setaria viridis L.), redroot pigweed (Amaranthus retroflexus L.), prickly sida (Sida spinosa L.), velvetleaf (Abutilon theophrasti MEDIC.), rice (Oryza sativa L.), wheat (Triticum spp.), corn (Zea mays L.) and soybean (Glycine max Merr.)) were sown. On the day after sowing, wettable powders or emulsifiable concentrates of the compounds of the above formula (I) prepared in accordance with a conventional preparation method, were weighed so that the active ingredients became the prescribed amounts, and diluted with water in an amount corresponding to 500 liter per 1 hectare, followed by soil application with a small sprayer.
# (§4) On the 19th to 28th day after the application, the state of growth of the respective plants was visually observed, and the herbicidal effect was evaluated by a growth inhibition rate (%) of from 0 (equivalent to the non-treated area) to 100% (complete kill).
# [4] = system: soybean (Glycine max Merr.); experiment: Test Example 1: foliar treatment, upland pot test, soybean
# Description: as §1, §2
# [5] = system: crabgrass (Digitaria sanquinalis L.); experiment: Test Example 2: soil application on the day after sowing, crabgrass; settings: 250 g/ha active ingredient, observed 19th to 28th day after application
# Description: as §3, §4
# [6] = system: green foxtail (Setaria viridis L.); experiment: Test Example 1: foliar treatment, upland pot test, green foxtail
# Description: as §1, §2
# [7] = system: prickly sida (Sida spinosa L.); experiment: Test Example 1: foliar treatment, upland pot test, prickly sida; settings: for Growth inhibition rate (%) Prickly sida: 31 g/ha active ingredient, observed 17th to 25th day after application
# Description: as §1, §2
# [8] = system: barnyardgrass (Echinochloa crus-galli L.); experiment: Test Example 1: foliar treatment, upland pot test, barnyardgrass
# Description: as §1, §2
# corn (Zea mays L.) [9] = experiment: Test Example 2: soil application on the day after sowing, corn; settings: 250 g/ha active ingredient, observed 19th to 28th day after application
# Description: as §3, §4
# [10] = system: crabgrass (Digitaria sanguinalis L.); experiment: Test Example 1: foliar treatment, upland pot test, crabgrass
# Description: as §1, §2
# [11] = system: prickly sida (Sida spinosa L.); experiment: Test Example 2: soil application on the day after sowing, prickly sida; settings: 250 g/ha active ingredient, observed 19th to 28th day after application
# Description: as §3, §4
# [12] = system: soybean (Glycine max Merr.); experiment: Test Example 2: soil application on the day after sowing, soybean; settings: 250 g/ha active ingredient, observed 19th to 28th day after application
# Description: as §3, §4
# rice (Oryza sativa L.) [13] = experiment: Test Example 2: soil application on the day after sowing, rice; settings: 250 g/ha active ingredient, observed 19th to 28th day after application
# Description: as §3, §4
# [14] = system: green foxtail (Setaria viridis L.); experiment: Test Example 2: soil application on the day after sowing, green foxtail; settings: 250 g/ha active ingredient, observed 19th to 28th day after application
# Description: as §3, §4
# [15] = system: redroot pigweed (Amaranthus retroflexus L.); experiment: Test Example 1: foliar treatment, upland pot test, redroot pigweed; settings: for Growth inhibition rate (%) Redroot pigweed: 31 g/ha active ingredient, observed 17th to 25th day after application
# Description: as §1, §2
# [16] = system: velvetleaf (Abutilon theophrasti MEDIC.); experiment: Test Example 1: foliar treatment, upland pot test, velvetleaf
# Description: as §1, §2
# [17] = system: barnyardgrass (Echinochloa crus-galli L.); experiment: Test Example 2: soil application on the day after sowing, barnyardgrass; settings: 250 g/ha active ingredient, observed 19th to 28th day after application
# Description: as §3, §4
# [18] = system: redroot pigweed (Amaranthus retroflexus L.); experiment: Test Example 2: soil application on the day after sowing, redroot pigweed; settings: 250 g/ha active ingredient, observed 19th to 28th day after application
# Description: as §3, §4
# wheat (Triticum spp.) = experiment: Test Example 1: foliar treatment, upland pot test, wheat
# Description: as §1, §2
# [19] = 31 g/ha active ingredient, observed 17th to 25th day after application
SMILES,Growth inhibition rate (%) Corn (corn (Zea mays L.) [1]; [19]) [%],Growth inhibition rate (%) Rice (rice (Oryza sativa L.) [2]; [19]) [%],Growth inhibition rate (%) Velvetleaf [3] [%],"Growth inhibition rate (%) Soybean [4, 19] [%]",Growth inhibition rate (%) Crabgrass [5] [%],"Growth inhibition rate (%) Green foxtail [6, 19] [%]",Growth inhibition rate (%) Prickly sida [7] [%],"Growth inhibition rate (%) Barnyardgrass [8, 19] [%]",Growth inhibition rate (%) Corn (corn (Zea mays L.) [9]) [%],"Growth inhibition rate (%) Crabgrass [10, 19] [%]",Growth inhibition rate (%) Prickly sida [11] [%],Growth inhibition rate (%) Soybean [12] [%],Growth inhibition rate (%) Rice (rice (Oryza sativa L.) [13]) [%],Growth inhibition rate (%) Green foxtail [14] [%],Growth inhibition rate (%) Redroot pigweed [15] [%],"Growth inhibition rate (%) Velvetleaf [16, 19] [%]",Growth inhibition rate (%) Barnyardgrass [17] [%],Growth inhibition rate (%) Redroot pigweed [18] [%],other results
Cc1c(C(=O)c2cnn(C)c2O)ccc(S(C)(=O)=O)c1COCC(F)(F)F [compound 160],0,50,100,98,100,75,60,90,0,100,95,50,100,100,98,100,100,100,
COC(C)COc1c(S(C)(=O)=O)ccc(C(=O)c2cnn(C)c2O)c1C (stereo not shown) [compound 227],0,80,100,100,100,98,90,95,0,60,98,10,100,100,100,100,100,100,
CCn1ncc(C(=O)c2ccc(S(C)(=O)=O)c(OCC3OCCO3)c2Cl)c1O [compound 250],,,,,,,,,,,,,,,,,,,"inhibition at 63 g/ha (corn (Zea mays L.) [1]; Zea mays, 63 g/ha active ingredient, observed 21st day after application, read-out: Growth inhibition rate (%) Corn): 10%; inhibition at 63 g/ha (rice (Oryza sativa L.) [2]; Oryza sativa, 63 g/ha active ingredient, observed 21st day after application, read-out: Growth inhibition rate (%) Rice): 0%; inhibition at 63 g/ha ([4]; Glycine max, 63 g/ha active ingredient, observed 21st day after application, read-out: Growth inhibition rate (%) Soybean): 90%; inhibition at 63 g/ha (wheat (Triticum spp.); Triticum, 63 g/ha active ingredient, observed 21st day after application, read-out: Growth inhibition rate (%) Wheat): 0%; inhibition at 63 g/ha ([6]; Setaria viridis, 63 g/ha active ingredient, observed 21st day after application, read-out: Growth inhibition rate (%) Green foxtail): 80%; inhibition at 63 g/ha ([7]; Sida spinosa, 63 g/ha active ingredient, observed 21st day after application, read-out: Growth inhibition rate (%) Prickly sida): 60%; inhibition at 63 g/ha ([8]; Echinochloa crus-galli, 63 g/ha active ingredient, observed 21st day after application, read-out: Growth inhibition rate (%) Barnyardgrass): 100%; inhibition at 63 g/ha ([10]; Digitaria sanguinalis, 63 g/ha active ingredient, observed 21st day after application, read-out: Growth inhibition rate (%) Crabgrass): 98%; inhibition at 63 g/ha ([15]; Amaranthus retroflexus, 63 g/ha active ingredient, observed 21st day after application, read-out: Growth inhibition rate (%) Redroot pigweed): 100%; inhibition at 63 g/ha ([16]; Abutilon theophrasti, 63 g/ha active ingredient, observed 21st day after application, read-out: Growth inhibition rate (%) Velvetleaf): 95%"
COCC(C)Oc1c(S(C)(=O)=O)ccc(C(=O)c2cnn(C)c2O)c1C (stereo not shown) [compound 254],0,40,50,80,98,50,40,40,0,50,60,0,75,10,95,80,100,100,Growth inhibition rate (%) Wheat (wheat (Triticum spp.); [19]): 0%
Cc1c(C(=O)c2cnn(C)c2O)ccc(S(C)(=O)=O)c1CC1OCCO1 [compound 256],,,,,,,,,,,,,,,,,,,"inhibition at 31 g/ha (corn (Zea mays L.) [1]; Zea mays, 31 g/ha active ingredient, observed 17th to 25th day after application, read-out: Growth inhibition rate (%) Corn): 0%; inhibition at 31 g/ha (rice (Oryza sativa L.) [2]; Oryza sativa, 31 g/ha active ingredient, observed 17th to 25th day after application, read-out: Growth inhibition rate (%) Rice): 60%; inhibition at 250 g/ha ([3]; Abutilon theophrasti, read-out: Growth inhibition rate (%) Velvetleaf): 80%; inhibition at 31 g/ha ([4]; Glycine max, 31 g/ha active ingredient, observed 17th to 25th day after application, read-out: Growth inhibition rate (%) Soybean): 80%; inhibition at 250 g/ha ([5]; Digitaria, read-out: Growth inhibition rate (%) Crabgrass): 100%; inhibition at 31 g/ha ([6]; Setaria viridis, 31 g/ha active ingredient, observed 17th to 25th day after application, read-out: Growth inhibition rate (%) Green foxtail): 70%; inhibition at 31 g/ha ([8]; Echinochloa crus-galli, 31 g/ha active ingredient, observed 17th to 25th day after application, read-out: Growth inhibition rate (%) Barnyardgrass): 100%; inhibition at 250 g/ha (corn (Zea mays L.) [9]; Zea mays, read-out: Growth inhibition rate (%) Corn): 0%; inhibition at 31 g/ha ([10]; Digitaria sanguinalis, 31 g/ha active ingredient, observed 17th to 25th day after application, read-out: Growth inhibition rate (%) Crabgrass): 90%; inhibition at 250 g/ha ([11]; Sida spinosa, read-out: Growth inhibition rate (%) Prickly sida): 60%; inhibition at 250 g/ha (rice (Oryza sativa L.) [13]; Oryza sativa, read-out: Growth inhibition rate (%) Rice): 80%; inhibition at 250 g/ha ([14]; Setaria viridis, read-out: Growth inhibition rate (%) Green foxtail): 95%; inhibition at 31 g/ha ([16]; Abutilon theophrasti, 31 g/ha active ingredient, observed 17th to 25th day after application, read-out: Growth inhibition rate (%) Velvetleaf): 100%; inhibition at 250 g/ha ([17]; Echinochloa crus-galli, read-out: Growth inhibition rate (%) Barnyardgrass): 100%"
Cc1c(C(=O)c2cnn(C)c2O)ccc(S(C)(=O)=O)c1COC(C)C [compound 257],0,90,80,70,100,98,75,100,0,90,70,0,90,60,85,98,90,98,
